Assay results reported in ChEMBL document CHEMBL3877320, “Synthesis of new analogs of AKBA and evaluation of their anti-inflammatory activities” (Bioorg Med Chem, 2017).
≈ marks a conversion by molar mass, not a printed value.

Experiment: Inhibition of potato 5-lipoxygenase using linoleic acid as substrate preincubated for 2 mins followed by substrate addition measured for 120 secs
Set-up: species or system Solanum tuberosum

Structure (SMILES)	IC50 [µg/mL]
C[C@H]1[C@H](C)CC[C@]2(C)CC[C@]3(C)C(=CC(=O)[C@@H]4[C@@]5(C)CC(C=O)C(=O)[C@](C)(C(=O)Nc6ccccc6)[C@@H]5CC[C@]43C)[C@H]12 (some centres undefined)	19.53 (≈ 34.2 µM)
C[C@H]1[C@H](C)CC[C@]2(C)CC[C@]3(C)C(=CC(=O)[C@@H]4[C@@]5(C)CC(C=O)C(=O)[C@](C)(C(=O)N6CCCCC6)[C@@H]5CC[C@]43C)[C@H]12 (some centres undefined)	> 100
COC(=O)[C@@]1(C)C(=O)C(C#N)=C[C@]2(C)[C@H]3C(=O)C=C4[C@@H]5[C@@H](C)[C@H](C)CC[C@]5(C)CC[C@@]4(C)[C@]3(C)CC[C@@H]12	> 100
C[C@H]1[C@H](C)CC[C@]2(C)CC[C@]3(C)C(=CC(=O)[C@@H]4[C@@]5(C)CC(C=O)C(=O)[C@](C)(C(N)=O)[C@@H]5CC[C@]43C)[C@H]12 (some centres undefined)	> 100
C[C@H]1[C@H](C)CC[C@]2(C)CC[C@]3(C)C(=CC(=O)[C@@H]4[C@@]5(C)Cc6cn[nH]c6[C@](C)(C(=O)N6CCCCC6)[C@@H]5CC[C@]43C)[C@H]12	> 100
CC(=O)O[C@@H]1CC[C@@]2(C)[C@@H](CC[C@]3(C)[C@@H]2C(=O)C=C2[C@@H]4[C@@H](C)[C@H](C)CC[C@]4(C)CC[C@]23C)[C@@]1(C)C(=O)O [AKBA]	94.6 (≈ 185 µM)
C[C@H]1[C@H](C)CC[C@]2(C)CC[C@]3(C)C(=CC(=O)[C@@H]4[C@@]5(C)Cc6cn[nH]c6[C@](C)(C(=O)N6CCNCC6)[C@@H]5CC[C@]43C)[C@H]12	> 100
COC(=O)[C@@]1(C)c2oncc2C[C@@]2(C)[C@H]1CC[C@]1(C)[C@@H]2C(=O)C=C2[C@@H]3[C@@H](C)[C@H](C)CC[C@]3(C)CC[C@]21C	> 100
C[C@H]1[C@H](C)CC[C@]2(C)CC[C@]3(C)C(=CC(=O)[C@@H]4[C@@]5(C)Cc6cnoc6[C@](C)(C(=O)N6CCN(C)CC6)[C@@H]5CC[C@]43C)[C@H]12	> 100
C[C@H]1[C@H](C)CC[C@]2(C)CC[C@]3(C)C(=CC(=O)[C@@H]4[C@@]5(C)CC(C=O)C(=O)[C@@H](C)[C@@H]5CC[C@]43C)[C@H]12 (some centres undefined)	44.14 (≈ 97.5 µM)
C[C@H]1[C@H](C)CC[C@]2(C)CC[C@]3(C)C(=CC(=O)[C@@H]4[C@@]5(C)Cc6cn[nH]c6[C@](C)(C(=O)O)[C@@H]5CC[C@]43C)[C@H]12	> 100
C[C@H]1[C@H](C)CC[C@]2(C)CC[C@]3(C)C(=CC(=O)[C@@H]4[C@@]5(C)CC(C=O)C(=O)[C@](C)(C(=O)N6CCOCC6)[C@@H]5CC[C@]43C)[C@H]12 (some centres undefined)	> 100
C[C@H]1[C@H](C)CC[C@]2(C)CC[C@]3(C)C(=CC(=O)[C@@H]4[C@@]5(C)Cc6cnoc6[C@](C)(C(=O)N6CCCCC6)[C@@H]5CC[C@]43C)[C@H]12	20.31 (≈ 36.2 µM)
C[C@H]1[C@H](C)CC[C@]2(C)CC[C@]3(C)C(=CC(=O)[C@@H]4[C@@]5(C)Cc6cn[nH]c6[C@](C)(C(=O)N6CCN(C)CC6)[C@@H]5CC[C@]43C)[C@H]12	> 100
